# Measurements from patent EP1986670B1, “INTESTINAL ALPHA-GLUCOSIDASE INHIBITORS AND A PROCESS FOR THE ISOLATION AND USE THEREOF” (Council of Scientific and Industrial Research, priority 2006, dated 2007).
# Biological target: intestinal α-glucosidase
# Assay: Assay for intestinal α-glucosidase inhibition (p-nitrophenyl α-D-glucopyranoside substrate, read at 405 nm)
# Format: biochemical, Rat
# Settings: for Intestinal α-glucosidase inhibitory activity IC50 VALUES: crude enzyme from rat intestinal acetone powder, substrate p-nitrophenyl α-D-glucopyranoside, phosphate buffer pH6.8, triplicate
# Experimental: Example 2: Assay for intestinal α-glucosidase inhibition:- Rat intestinal acetone powder (sigma chemicals, USA) in normal saline in ration of 100:1 (w/v) was sonicated properly. Supernatant obtained after centrifugation at 3000rpm x 30 min at 25°C was treated as crude source of mammalian intestinal α-glucosidase 10 µL of test samples prepared from either extracts or the molecules (5mg/ml in DMSO) were incubated in 100µL of 100 mM phosphate buffer (pH6.8) with 50 µL of crude enzyme for 5 minutes. Thereafter 50 µL of substrate (5mM, p-nitrophenyl α-D-glucopyranoside prepared in the buffer)was added. After 5 minutes incubation, released p-nitro phenol was read at 405nm spectrophotometrically. For control and blank readings at the place of test samples 10 µL of DMSO and at the place of substrate 50 µL of buffer was added: In order to compensate interference from colored compounds there individual blanks were prepared and spectophotpmetric reading were evaluated accordingly the percent inhibition was calculated as follows:- […] [formula] and 50% inhibitory concentration(IC50)for test samples were calculated by applying suitable regression analysis from the data obtain from serial dilution of the test samples concentrations. Each test sample and other control samples were run in triplicate.
Compound,in vitro α-glucosidase inhibitory activity IC50 [µg/mL],Intestinal α-glucosidase inhibitory activity IC50 VALUES [µg/mL]
"O=c1cc(-c2ccccc2)oc2cc(O)c(O)c(O)c12 [Baicalein, 5,6,7-trihydroxy-2-phenyl-chromen-4-one]",38.71,38.71
"O=c1cc(-c2ccccc2)oc2cc(O)cc(O)c12 [Chrysin, 5,7-dihydroxy-2-phenyl-chromen-4-one]",57.59,57.59
"COc1cc(O)c2c(=O)cc(-c3ccccc3)oc2c1 [Methoxy chrysin, 5-hydroxy-7-methoxy-2-phenyl-chromen-4-one]",,95.39

# More lines, now with the values ahead:
in vitro α-glucosidase inhibitory activity IC50 [µg/mL],Intestinal α-glucosidase inhibitory activity IC50 VALUES [µg/mL],Compound
97.31,97.31,COC(=O)[C@H]1O[C@@H](Oc2cc3oc(-c4ccccc4)cc(=O)c3c(O)c2OC)[C@H](O)[C@@H](O)[C@@H]1O [Oroxyloside methyl ester]
25.90,25.90,"COc1c(O)cc2oc(-c3ccccc3)cc(=O)c2c1O [Oroxylin-A, 5,7-Dihydroxy-6-methoxy-2-phenyl-chromen-4-one]"
